Patent US9499550B2 (BRISTOL-MYERS SQUIBB COMPANY, priority 2012, dated 2016)
Read-outs that look alike come from different tables or passages of the source.

Key:
[1] = system: HCV genotype 1b (Con1) replicon in HUH-7 cells; experiment: HCV replicon luciferase reporter assay, genotype 1b; format: cell-based; conditions: Hepatitis C virus, Huh-7, 72 h, 3 days incubation, read-out: LE_1b (EC50, range)
How it was run: (§1)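 Replicon inhibition for both genotypes was measured as Renilla luciferase signal (EnduRen, 7.5 μM final, 2 h) after 3-day, 37° C exposure of replicon-bearing HUH-7 cells in 4% FCS DMEM, 0.5% DMSO. The 1b construct carries S1179I; the 1a H77 construct carries P1496L and S2204I. Twenty-point, 3-fold dilutions were fitted four-parametrically for EC50, and CC50 was taken from multiplexed Cell Titer-Blue.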

[2] = system: HCV genotype 1a (H77 strain) replicon in HUH-7 cells; experiment: HCV replicon luciferase reporter assay, genotype 1a; format: cell-based; conditions: Hepatitis C virus, Huh-7, 72 h, 3 days incubation, read-out: LE_1a (EC50, range)
How it was run: as §1

[3] = HCV genotype 1b replicon luciferase assay, range class
[4] = HCV genotype 1a replicon luciferase assay, range class
[5] = GETYPE1B, HCV genotype 1b replicon luciferase
[6] = GETYPE1A, HCV genotype 1a replicon luciferase
[7] = HCV genotype 1b replicon luciferase
[8] = HCV genotype 1a replicon luciferase

Compound | EC50 [1, 3] [nM] | EC50 [2, 4] [nM] | EC50 [1, 7] [nM] | EC50 [2, 8] [nM] | further results
COc1cc(F)cc2c(O[C@@H]3C[C@H]4C(=O)N[C@]5(C(=O)NS(=O)(=O)C6CC6)C[C@H]5/C=C\CC[C@H](C)C[C@@H](C)[C@H](NC(=O)OCC5(C)CC5)C(=O)N4C3)nccc12 [Compound 3171, (1-methylcyclopropyl)methyl ((2R,6S,7R,9S,13aS,14aR,16aS,Z)-14a-((cyclopropylsulfonyl)carbamoyl)-2-((7-fluoro-5-methoxyisoquinolin-1-yl)oxy)-7,9-dimethyl-5,16-dioxo-1,2,3,5,6,7,8,9,10,11,13a,14,14a,15,16,16a-hexadecahydrocyclopropa[e]pyrrolo[1,2-a][1,4]diazacyclopentadecin-6-yl)carbamate] | < 5.46 | 4.82 to 103 |  |  | 
COc1ccc2c(O[C@@H]3C[C@H]4C(=O)N[C@]5(C(=O)NS(=O)(=O)C6(C)CC6)C[C@H]5/C=C\CC[C@@H](C)C[C@@H](C)[C@H](NC(=O)O[C@@H]5C[C@@H]6C[C@@H]6C5)C(=O)N4C3)nc(-c3ccc(OC(C)C)c(F)c3)cc2c1 [Compound 3072, (1R,3r,5S)-bicyclo[3.1.0]hexan-3-yl((2R,6S,7R,9R,13aS,14aR,16aS,Z)-2-((3-(3-fluoro-4-isopropoxyphenyl)-6-methoxyisoquinolin-1-yl)oxy)-7,9-dimethyl-14a-(((1-methylcyclopropyl)sulfonyl)carbamoyl)-5,16-dioxo-1,2,3,5,6,7,8,9,10,11,13a,14,14a,15,16,16a-hexadecahydrocyclopropa[e]pyrrolo[1,2-a][1,4]diazacyclopentadecin-6-yl)carbamate] | < 5.46 | < 5.46 |  |  | 
COc1cnc(O[C@@H]2C[C@H]3C(=O)N[C@]4(C(=O)NS(=O)(=O)C5CC5)C[C@H]4/C=C\CC[C@H](C)C[C@@H](C)[C@H](NC(=O)OC(C)(C)C)C(=O)N3C2)c2cc(Cl)ccc12 [Compound 1160, tert-butyl ((2R,6S,7R,9S,13aS,14aR,16aS,Z)-2-((7-chloro-4-methoxyisoquinolin-1-yl)oxy)-14a-((cyclopropylsulfonyl)carbamoyl)-7,9-dimethyl-5,16-dioxo-1,2,3,5,6,7,8,9,10,11,13a,14,14a,15,16,16a-hexadecahydrocyclopropa[e]pyrrolo[1,2-a][1,4]diazacyclopentadecin-6-yl)carbamate] | < 5.46 | 4.82 to 103 |  |  | 
COc1ccc2ncc(O[C@@H]3C[C@H]4C(=O)N[C@]5(C(=O)NS(=O)(=O)C6(C)CC6)C[C@H]5/C=C\CC[C@@H](C)C[C@@H](C)[C@H](NC(=O)OC(C)(C)C(F)(F)F)C(=O)N4C3)nc2c1 [Compound 4162] |  |  |  |  | EC50 [1, 5]: < 5.46 nM; EC50 [2, 6]: < 5.46 nM
COc1ccc2c(O[C@@H]3C[C@H]4C(=O)N[C@]5(C(=O)NS(=O)(=O)C6(C)CC6)C[C@H]5/C=C\CC[C@@H](C)C[C@@H](C)[C@H](NC(=O)OC(C)(C)C)C(=O)N4C3)nc(-c3ccc(OC(C)C)c(F)c3)cc2c1 [Compound 3062, tert-butyl ((2R,6S,7R,9R,13aS,14aR,16aS,Z)-2-((3-(3-fluoro-4-isopropoxyphenyl)-6-methoxyisoquinolin-1-yl)oxy)-7,9-dimethyl-14a-(((1-methylcyclopropyl)sulfonyl)carbamoyl)-5,16-dioxo-1,2,3,5,6,7,8,9,10,11,13a,14,14a,15,16,16a-hexadecahydrocyclopropa[e]pyrrolo[1,2-a][1,4]diazacyclopentadecin-6-yl)carbamate] | < 5.46 | < 5.46 |  |  | 
CC[C@@H]1C[C@H](C)CC/C=C\[C@@H]2C[C@@]2(C(=O)NS(=O)(=O)C2CC2)NC(=O)[C@@H]2C[C@@H](Oc3cc(OC)nc4cc(OC)ccc34)CN2C(=O)[C@H]1NC(=O)OC(C)(C)C(F)(F)F [Compound 1211] |  |  |  |  | EC50 [1, 5]: 0.51 to 1 nM; EC50 [2, 6]: 1.01 to 5 nM
COc1cc2ccnc(O[C@@H]3C[C@H]4C(=O)N[C@]5(C(=O)NS(=O)(=O)C6(C)CC6)C[C@H]5/C=C\CC[C@@H](C)C[C@@H](C)[C@H](NC(=O)OC(C)(C)C(F)(F)F)C(=O)N4C3)c2cc1F [Compound 4039, 1,1-trifluoro-2-methylpropan-2-yl(2R,6S,7R,9R,13aS,14aR,16aS,Z)-2-(7-fluoro-6-methoxyisoquinolin-1-yloxy)-7,9-dimethyl-14a-(1-methylcyclopropylsulfonylcarbamoyl)-5,16-dioxo-1,2,3,5,6,7,8,9,10,11,13a,14,14a,15,16,16a-hexadecahydrocyclopropa[e]pyrrolo[1,2-a][1,4]diazacyclopentadecin-6-ylcarbamate] |  |  | < 5.46 | < 5.46 | 
COc1ccc2c(O[C@@H]3C[C@H]4C(=O)N[C@]5(C(=O)NS(=O)(=O)C6(CF)CC6)C[C@H]5/C=C\CC[C@H](C)C[C@@H](C)[C@H](NC(=O)OC(C)(C)C(C)(F)F)C(=O)N4C3)nc(C(F)(F)F)cc2c1 [Compound 1170, 3,3-difluoro-2-methylbutan-2-yl((2R,6S,7R,9S,13aS,14aR,16aS,Z)-14a-(((1-(fluoromethyl)cyclopropyl)sulfonyl)carbamoyl)-2-((6-methoxy-3-(trifluoromethyl)isoquinolin-1-yl)oxy)-7,9-dimethyl-5,16-dioxo-1,2,3,5,6,7,8,9,10,11,13a,14,14a,15,16,16a-hexadecahydrocyclopropa[e]pyrrolo[1,2-a][1,4]diazacyclopentadecin-6-yl)carbamate] | 4.82 to 103 | 4.82 to 103 |  |  | 
CCOc1cnc(O[C@@H]2C[C@H]3C(=O)N[C@]4(C(=O)NS(=O)(=O)C5(C)CC5)C[C@H]4/C=C\CC[C@H](C)C[C@@H](C)[C@H](NC(=O)OC(C)(C)C(F)(F)F)C(=O)N3C2)c2ccc(OC)cc12 [Compound 4230] |  |  |  |  | EC50 [1, 5]: < 5.46 nM; EC50 [2, 6]: < 5.46 nM
[2H]C([2H])([2H])Oc1cc2ccnc(O[C@@H]3C[C@H]4C(=O)N[C@]5(C(=O)NS(=O)(=O)C6(C)CC6)C[C@H]5/C=C\CC[C@@H](C)C[C@@H](CC)[C@H](NC(=O)OC(C([2H])([2H])[2H])(C([2H])([2H])[2H])C(F)(F)F)C(=O)N4C3)c2cc1F [Compound 5505] |  |  | 1.01 to 5 | 5.01 to 35 | 
C[C@@H]1CC/C=C\[C@@H]2C[C@@]2(C(=O)NS(=O)(=O)C2(C)CC2)NC(=O)[C@@H]2C[C@@H](Oc3ncc(O)c4ccccc34)CN2C(=O)[C@@H](NC(=O)OC(C)(C)C(F)(F)F)[C@H](C)C1 [Compound 4103] |  |  |  |  | EC50 [1, 5]: 4.82 to 103 nM; EC50 [2, 6]: 4.82 to 103 nM
COc1ccc(-c2nc(O[C@@H]3C[C@H]4C(=O)N[C@]5(C(=O)NS(=O)(=O)C6CC6)C[C@H]5/C=C\CC[C@@H](C)C[C@@H](C)[C@H](NC(=O)OC(C)(C)C)C(=O)N4C3)c3ccc(OC)cc3n2)cc1 [Compound 5002, tert-butyl ((2R,6S,7R,9R,13aS,14aR,16aS,Z)-14a-((cyclopropylsulfonyl)carbamoyl)-2-((7-methoxy-2-(4-methoxyphenyl)quinazolin-4-yl)oxy)-7,9-dimethyl-5,16-dioxo-1,2,3,5,6,7,8,9,10,11,13a,14,14a,15,16,16a-hexadecahydrocyclopropa[e]pyrrolo[1,2-a][1,4]diazacyclopentadecin-6-yl)carbamate] |  |  | < 5.46 | < 5.46 | 
COc1ccc2c(O[C@@H]3C[C@H]4C(=O)N[C@]5(C(=O)NS(=O)(=O)C6(C)CC6)C[C@H]5/C=C\CC[C@@H](C)C[C@@H](C)[C@H](NC(=O)OC5C[C@@H]6C[C@@H]6C5)C(=O)N4C3)nc(-c3ccc(OC(C)C)nc3)cc2c1 (stereo partly drawn) [Compound 5229, (1R,3r,5S)-bicyclo[3.1.0]hexan-3-yl((2R,6S,7R,9R,13aS,14aR,16aS,Z)-2-((3-(6-isopropoxypyridin-3-yl)-6-methoxyisoquinolin-1-yl)oxy)-7,9-dimethyl-14a-(((1-methylcyclopropyl)sulfonyl)carbamoyl)-5,16-dioxo-1,2,3,5,6,7,8,9,10,11,13a,14,14a,15,16,16a-hexadecahydrocyclopropa[e]pyrrolo[1,2-a][1,4]diazacyclopentadecin-6-yl)carbamate] |  |  | < 5.46 | < 5.46 | 
COc1ccc2c(O[C@@H]3C[C@H]4C(=O)N[C@]5(C(=O)NS(=O)(=O)C6(CF)CC6)C[C@H]5/C=C\CC[C@@H](C)C[C@@H](C)[C@H](NC(=O)OC(C)(C)C(C)(F)F)C(=O)N4C3)nc(C(F)(F)F)cc2c1 [Compound 1171, 3,3-difluoro-2-methylbutan-2-yl((2R,6S,7R,9R,13aS,14aR,16aS,Z)-14a-(((1-(fluoromethyl)cyclopropyl)sulfonyl)carbamoyl)-2-((6-methoxy-3-(trifluoromethyl)isoquinolin-1-yl)oxy)-7,9-dimethyl-5,16-dioxo-1,2,3,5,6,7,8,9,10,11,13a,14,14a,15,16,16a-hexadecahydrocyclopropa[e]pyrrolo[1,2-a][1,4]diazacyclopentadecin-6-yl)carbamate] | < 5.46 | < 5.46 |  |  | 
C[C@H]1CC/C=C\[C@@H]2C[C@@]2(C(=O)NS(=O)(=O)C2CC2)NC(=O)[C@@H]2C[C@@H](Oc3nc4ccccc4c4ccccc34)CN2C(=O)[C@@H](NC(=O)OC(C)(C)C)[C@H](C)C1 [Compound 5182, tert-butyl ((2R,6S,7R,9S,13aS,14aR,16aS,Z)-14a-((cyclopropylsulfonyl)carbamoyl)-7,9-dimethyl-5,16-dioxo-2-(phenanthridin-6-yloxy)-1,2,3,5,6,7,8,9,10,11,13a,14,14a,15,16,16a-hexadecahydrocyclopropa[e]pyrrolo[1,2-a][1,4]diazacyclopentadecin-6-yl)carbamate] |  |  | < 5.46 | < 5.46 | 
COc1ccc2c(O[C@@H]3C[C@H]4C(=O)N[C@]5(C(=O)NS(=O)(=O)C6(F)CC6)C[C@H]5/C=C\CC[C@@H](C)C[C@@H](C)[C@H](NC(=O)c5ccccc5F)C(=O)N4C3)nccc2c1 [Compound 4029] |  |  | < 5.46 | < 5.46 | 
